How the values were obtained:
Assay in all cases: relative viability (nuclei count vs DMSO), 5 days (fraction); higher = more cells survive
Palbociclib + Crizotinib = compound: CC(=O)c1c(C)c2cnc(Nc3ccc(N4CCNCC4)cn3)nc2n(C2CCCC2)c1=O [Palbociclib] + C[C@@H](Oc1cc(-c2cnn(C3CCNCC3)c2)cnc1N)c1c(Cl)ccc(F)c1Cl [Crizotinib] (partner 1 µM)
In short: (§1)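 For relative viability, nuclei counts in treated wells were divided by those in vehicle wells. Lung cancer cell lines had been pin-tool dosed in 1536-well plates the day after seeding and cultured for 5 days, then fixed and stained in one step (final 0.05% Triton X-100, 1% formaldehyde, 1 ug/ml Hoechst) and imaged at 4×. Doses were one drug alone or a fixed anchor-drug dose plus five library-drug doses (not always all listed) in √10 steps, and values are duplicate-plate medians.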

Palbociclib + Navitoclax = compound: CC(=O)c1c(C)c2cnc(Nc3ccc(N4CCNCC4)cn3)nc2n(C2CCCC2)c1=O [Palbociclib] + CC1(C)CCC(c2ccc(Cl)cc2)=C(CN2CCN(c3ccc(C(=O)NS(=O)(=O)c4ccc(N[C@H](CCN5CCOCC5)CSc5ccccc5)c(S(=O)(=O)C(F)(F)F)c4)cc3)CC2)C1 [Navitoclax] (partner 0.5 µM)
In short: as §1

Palbociclib + Bortezomib = compound: CC(=O)c1c(C)c2cnc(Nc3ccc(N4CCNCC4)cn3)nc2n(C2CCCC2)c1=O [Palbociclib] + CC(C)C[C@H](NC(=O)[C@H](Cc1ccccc1)NC(=O)c1cnccn1)B(O)O [Bortezomib] (partner 0.002 µM)
In short: as §1

Palbociclib + Pemetrexed = compound: CC(=O)c1c(C)c2cnc(Nc3ccc(N4CCNCC4)cn3)nc2n(C2CCCC2)c1=O [Palbociclib] + Nc1nc2[nH]cc(CCc3ccc(C(=O)N[C@@H](CCC(=O)O)C(=O)O)cc3)c2c(=O)[nH]1 [Pemetrexed] (partner 0.2 µM)
In short: as §1

Cell Line	relative viability (Palbociclib + Crizotinib; first compound 0.01 µM)	relative viability (Palbociclib + Crizotinib; first compound 0.03162 µM)	relative viability (Palbociclib + Crizotinib; first compound 0.1 µM)	relative viability (Palbociclib + Crizotinib; first compound 0.3162 µM)	relative viability (Palbociclib + Crizotinib; first compound 1 µM)	relative viability (Palbociclib + Navitoclax; first compound 0.01 µM)	relative viability (Palbociclib + Navitoclax; first compound 0.03162 µM)	relative viability (Palbociclib + Navitoclax; first compound 0.1 µM)	relative viability (Palbociclib + Navitoclax; first compound 0.3162 µM)	relative viability (Palbociclib + Navitoclax; first compound 1 µM)	relative viability (Palbociclib + Bortezomib; first compound 0.01 µM)	relative viability (Palbociclib + Bortezomib; first compound 0.03162 µM)	relative viability (Palbociclib + Bortezomib; first compound 0.1 µM)	relative viability (Palbociclib + Bortezomib; first compound 0.3162 µM)	relative viability (Palbociclib + Bortezomib; first compound 1 µM)	relative viability (Palbociclib + Pemetrexed; first compound 0.01 µM)	relative viability (Palbociclib + Pemetrexed; first compound 0.1 µM)	relative viability (Palbociclib + Pemetrexed; first compound 0.3162 µM)	relative viability (Palbociclib + Pemetrexed; first compound 1 µM)	relative viability (Palbociclib + Pemetrexed; first compound 0.03162 µM)
LU99A	0.636	0.559	0.496	0.428	0.389	0.789	0.677	0.759	0.601	0.522	0.976	0.935	1	1.09	0.67	0.176	0.158	0.171	0.19	–
LXF-289	0.747	0.811	0.782	0.684	0.612	0.94	0.94	0.937	0.83	0.772	0.997	0.933	0.971	0.852	0.677	0.887	0.793	0.793	0.681	0.733
NCI-H23	0.613	–	0.436	0.458	0.428	1.13	–	0.79	0.789	0.572	1.12	–	0.87	0.703	0.553	0.596	0.492	0.67	0.443	0.694
NCI-H322M	0.949	0.883	0.858	0.813	0.697	1.14	1.31	1.03	0.964	0.808	1.27	1.07	1.07	1.01	0.785	0.604	0.651	0.573	0.362	0.499
NCI-H441	0.685	0.593	0.474	0.546	0.433	–	0.593	0.336	0.484	0.572	–	0.365	0.446	0.558	0.367	0.276	0.258	0.236	0.257	0.266
NCI-H460	0.938	0.781	0.581	0.582	0.205	1.08	0.944	0.912	0.662	0.175	1.11	0.937	0.909	0.745	0.172	0.0576	0.0631	0.0663	0.057	0.0539
NCI-H520	0.748	0.551	0.648	0.641	0.337	1.08	0.719	0.745	0.785	0.481	0.496	0.496	0.35	0.403	0.236	0.636	0.554	0.331	0.267	0.573
NCI-H596	0.98	0.905	0.986	1.05	0.973	0.99	0.945	0.976	0.949	1.1	1.06	0.984	0.998	1.01	1.04	0.514	0.514	0.52	0.497	0.617
NCI-H647	0.947	0.809	0.759	0.735	0.462	1.33	0.92	0.759	0.93	0.738	0.963	0.814	0.696	0.851	0.472	0.167	0.2	0.179	0.188	0.171
NCI-H838	0.795	0.808	0.645	0.551	0.413	1.16	1.03	0.859	0.938	0.423	0.725	0.8	0.67	0.694	0.275	0.354	0.242	0.29	0.18	0.234
NCI-H1355	1.13	–	0.886	0.875	0.682	0.943	–	0.772	0.755	0.597	1.14	–	1.17	1.01	0.723	1.13	0.947	0.912	0.739	0.548
NCI-H1437	1.05	0.855	0.807	0.782	0.506	1.1	1.04	0.933	0.923	0.563	0.525	0.533	0.442	0.408	0.318	0.33	0.339	0.33	0.269	0.338
NCI-H1650	0.957	0.724	0.776	0.684	0.548	1.41	1.07	0.948	1.03	0.673	0.229	0.227	0.176	0.187	0.215	0.373	0.302	0.293	0.231	0.316
NCI-H1651	0.895	0.864	0.869	0.808	0.79	1.13	0.986	0.907	0.992	0.736	1	0.9	0.981	0.915	0.8	0.572	0.562	0.511	0.394	0.563
NCI-H1666	1.09	0.895	0.632	0.552	0.621	0.929	0.782	0.792	0.544	0.448	0.924	0.787	0.709	0.599	0.429	0.802	0.798	0.772	0.638	0.822
NCI-H1734	0.685	0.622	0.52	0.499	0.398	0.928	0.779	0.708	0.593	0.487	0.896	0.532	0.661	0.619	0.409	0.423	0.404	0.407	0.4	0.466
